The target of assay [1] is T1, Thymidine phosphorylase (Escherichia coli K-12, UniProt P07650). The assay can be described thus: Inhibition of Thymidine phosphorylase from Escherichia coli; no inhibition at 213 uM.
The target in assay [2] is T1, Thymidine phosphorylase. Kind of assay: Inhibition of Thymidine phosphorylase from Escherichia coli; no inhibition at 47.2 uM.
Assay [3] deals with T1, Thymidine phosphorylase. Kind of assay: Inhibition of Thymidine phosphorylase from Escherichia coli; no inhibition at 137 uM.
The target of assay [4] is T1, Thymidine phosphorylase. Kind of assay: Inhibition of Thymidine phosphorylase from Escherichia coli; no inhibition at 207 uM.
Assay [5] addresses T1, Thymidine phosphorylase. The assay can be described thus: Inhibition of Thymidine phosphorylase from Escherichia coli; no inhibition at 148 uM.
For assay [6], the target named is T1, Thymidine phosphorylase.

Structures can show the parent of a compound that is named as a salt.

T1 sequence (P07650 whole entry): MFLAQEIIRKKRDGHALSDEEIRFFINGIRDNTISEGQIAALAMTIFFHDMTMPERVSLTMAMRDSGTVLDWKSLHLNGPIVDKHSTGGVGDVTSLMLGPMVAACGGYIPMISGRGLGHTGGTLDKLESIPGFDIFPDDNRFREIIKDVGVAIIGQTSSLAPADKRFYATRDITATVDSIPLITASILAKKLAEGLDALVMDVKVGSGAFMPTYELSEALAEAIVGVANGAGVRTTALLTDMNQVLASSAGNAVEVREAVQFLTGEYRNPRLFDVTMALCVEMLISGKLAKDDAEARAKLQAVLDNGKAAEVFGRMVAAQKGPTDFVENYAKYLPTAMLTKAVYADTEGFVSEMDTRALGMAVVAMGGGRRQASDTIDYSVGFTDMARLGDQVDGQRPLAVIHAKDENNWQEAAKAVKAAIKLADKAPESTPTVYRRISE

For the compound `Nc1ncncc1Br`, the IC50 entry on Thymidine phosphorylase [1] was “No inhibition”. For `Cl.N=C1CCCN1Cc1nc[nH]c(=O)c1Cl`, at Thymidine phosphorylase [2], the IC50 result is “No inhibition”.

For the compound `Nc1[nH]c(=O)ncc1Br`, the IC50 result against Thymidine phosphorylase [3] was “No inhibition”. As for `O=c1[nH]cnc2[nH]ccc12`, the IC50 result against Thymidine phosphorylase [4] is “No inhibition”.

As to `O=c1ncc2cc[nH]c2[nH]1`, the IC50 result against Thymidine phosphorylase [5] is listed as “No inhibition”. Consider `Nc1nc[nH]c(=O)c1Br`, for which the IC50 result at Thymidine phosphorylase [5] was “No inhibition”. For `N=C1CCCN1Cc1[nH]c(=O)[nH]c(=O)c1Cl` [TIPIRACIL HYDROCHLORIDE], at Thymidine phosphorylase [6], the midpoint of inhibition, the IC50, lay at […].

In general, IC50 refers to the concentration that inhibits the measured activity by half. A lower IC50 goes with greater potency.

(Values after ChEMBL document CHEMBL1137985, “Synthesis and enzymatic evaluation of xanthine oxidase-activated prodrugs based on inhibitors of thymidine phosphorylase” (Bioorg Med Chem Lett, 2004).)
